{"source": "patent US20060018970A1", "about": "“Enoximone formulations and their use in the treatment of cardiac hypertrophy and heart failure” (Myogen, Inc., priority 2003, published 2006)", "key": {"[1]": {"test": "Solubility in the physiological pH range", "assay_type": "physicochemical", "details": "data unpublished"}, "[2]": {"system": "patients with the most advanced stage of chronic heart failure dependent on intravenous inotrope therapy", "details": "cited from earlier work"}, "clinical [3]": {"test": "clinical", "details": "human, plasma"}, "[4]": {"system": "type-III phosphodiesterase (PDE-III)", "details": "cited from earlier work"}, "clinical [5]": {"test": "clinical", "details": "human, in vivo, plasma concentration"}}, "note": "Where two headings read alike, the source gives them in different places.", "data": [{"smiles": "CSc1ccc(C(=O)c2[nH]c(=O)[nH]c2C)cc1", "note": "[enoximone, 1,3-Dihydro-4-methyl-5-[4-(methylthio)benzoyl]-2H-imidazol-2-one]", "values": [{"measurement": "solubility", "setting": "[1]", "value": "Limited solubility"}, {"measurement": "time to death or re-initiation of i.v. inotrope therapy", "setting": "[2]; 60-day (p=0.012), 75-day (p=0.016) and 90-day (p=0.041) periods", "value": "benefit in favor of enoximone versus placebo"}, {"measurement": "time to death or re-initiation of i.v. inotrope therapy", "setting": "[2]; 182-day period (p=0.188)", "value": "not"}, {"measurement": "mean total days on i.v. inotrope therapy over the course of the study", "setting": "[2]; placebo 49 days, p=0.049", "value": 28, "unit": "days"}, {"measurement": "concentration at 0.5 h", "setting": "clinical [3]; 25 mg, Patient 4, dose 25 mg", "value": 0.0237, "unit": "µg/mL"}, {"measurement": "concentration at 2 h", "setting": "clinical [3]; 25 mg, Patient 4, dose 25 mg, 2 HR", "value": 0.0636, "unit": "µg/mL"}, {"measurement": "concentration at 0 h", "setting": "clinical [3]; 25 mg, Patient 4, dose 25 mg, PREDOSE", "value": 0.0186, "unit": "µg/mL"}, {"measurement": "concentration at 2 h", "setting": "clinical [3]; 50 mg, Max, 2 hrs, after dosing of enoximone, 5 patients, raw data", "value": 0.383, "unit": "µg/mL"}, {"measurement": "concentration at 0.5 h", "setting": "clinical [3]; 50 mg, Patient 1, dose 50 mg", "value": 0.118, "unit": "µg/mL"}, {"measurement": "concentration at 1 h", "setting": "clinical [3]; 50 mg, Patient 1, dose 50 mg", "value": 0.424, "unit": "µg/mL"}, {"measurement": "concentration at 2 h", "setting": "clinical [3]; 50 mg, Patient 1, dose 50 mg, 2 HR", "value": 0.383, "unit": "µg/mL"}, {"measurement": "concentration at 4 h", "setting": "clinical [3]; 50 mg, Patient 1, dose 50 mg, 4 HR", "value": 0.209, "unit": "µg/mL"}, {"measurement": "concentration at 6 h", "setting": "clinical [3]; 50 mg, Patient 1, dose 50 mg", "value": 0.112, "unit": "µg/mL"}, {"measurement": "concentration at 0.5 h", "setting": "clinical [3]; 50 mg, Patient 2, dose 50 mg", "value": 0.0528, "unit": "µg/mL"}, {"measurement": "concentration at 1 h", "setting": "clinical [3]; 50 mg, Patient 2, dose 50 mg", "value": 0.0498, "unit": "µg/mL"}, {"measurement": "concentration at 2 h", "setting": "clinical [3]; 50 mg, Patient 2, dose 50 mg, 2 HR", "value": 0.127, "unit": "µg/mL"}, {"measurement": "concentration at 4 h", "setting": "clinical [3]; 50 mg, Patient 2, dose 50 mg, 4 HR", "value": 0.237, "unit": "µg/mL"}, {"measurement": "concentration at 6 h", "setting": "clinical [3]; 50 mg, Patient 2, dose 50 mg", "value": 0.122, "unit": "µg/mL"}, {"measurement": "concentration at 0 h", "setting": "clinical [3]; 50 mg, Patient 2, dose 50 mg, PREDOSE", "value": 0.0667, "unit": "µg/mL"}, {"measurement": "concentration at 0.5 h", "setting": "clinical [3]; 50 mg, Patient 3, dose 50 mg", "value": 0.0924, "unit": "µg/mL"}, {"measurement": "concentration at 1 h", "setting": "clinical [3]; 50 mg, Patient 3, dose 50 mg", "value": 0.118, "unit": "µg/mL"}, {"measurement": "concentration at 2 h", "setting": "clinical [3]; 50 mg, Patient 3, dose 50 mg, 2 HR", "value": 0.11, "unit": "µg/mL"}, {"measurement": "concentration at 4 h", "setting": "clinical [3]; 50 mg, Patient 3, dose 50 mg, 4 HR", "value": 0.0782, "unit": "µg/mL"}, {"measurement": "concentration at 6 h", "setting": "clinical [3]; 50 mg, Patient 3, dose 50 mg", "value": 0.0717, "unit": "µg/mL"}, {"measurement": "concentration at 0 h", "setting": "clinical [3]; 50 mg, Patient 3, dose 50 mg, PREDOSE", "value": 0.0344, "unit": "µg/mL"}, {"measurement": "concentration at 0.5 h", "setting": "clinical [3]; 50 mg, Patient 5, dose 50 mg", "value": 0.137, "unit": "µg/mL"}, {"measurement": "concentration at 1 h", "setting": "clinical [3]; 50 mg, Patient 5, dose 50 mg", "value": 0.355, "unit": "µg/mL"}, {"measurement": "concentration at 2 h", "setting": "clinical [3]; 50 mg, Patient 5, dose 50 mg, 2 HR", "value": 0.369, "unit": "µg/mL"}, {"measurement": "concentration at 4 h", "setting": "clinical [3]; 50 mg, Patient 5, dose 50 mg, 4 HR", "value": 0.268, "unit": "µg/mL"}, {"measurement": "concentration at 6 h", "setting": "clinical [3]; 50 mg, Patient 5, dose 50 mg", "value": 0.166, "unit": "µg/mL"}, {"measurement": "concentration at 0 h", "setting": "clinical [3]; 50 mg, Patient 5, dose 50 mg, PREDOSE", "value": 0.149, "unit": "µg/mL"}, {"measurement": "concentration at 0 h", "setting": "clinical [3]; Max, 0 hr, after dosing of enoximone, 5 patients, raw data", "value": 0.149, "unit": "µg/mL"}, {"measurement": "concentration at 4 h", "setting": "clinical [3]; Max, 4 hrs, after dosing of enoximone, 5 patients, raw data", "value": 0.268, "unit": "µg/mL"}, {"measurement": "concentration at 8 h", "setting": "clinical [3]; Max, after dosing of enoximone, 5 patients, raw data", "value": 0.166, "unit": "µg/mL"}, {"measurement": "concentration at 0 h", "setting": "clinical [3]; Min, 0 hr, after dosing of enoximone, 5 patients, raw data", "value": 0.00795, "unit": "µg/mL"}, {"measurement": "concentration at 2 h", "setting": "clinical [3]; Min, 2 hrs, after dosing of enoximone, 5 patients, raw data", "value": 0.0636, "unit": "µg/mL"}, {"measurement": "concentration at 4 h", "setting": "clinical [3]; Min, 4 hrs, after dosing of enoximone, 5 patients, raw data", "value": 0.044, "unit": "µg/mL"}, {"measurement": "concentration at 8 h", "setting": "clinical [3]; Min, after dosing of enoximone, 5 patients, raw data", "value": 0.0207, "unit": "µg/mL"}, {"measurement": "plasma concentration", "setting": "Patient 1, dose 50 mg, PREDOSE", "value": 0.0697, "unit": "µg/mL"}, {"measurement": "plasma concentration", "setting": "Patient 4, dose 25 mg, HR ALIQUOT 1 (between 0.5 HR and 2 HR)", "value": 0.0658, "unit": "µg/mL"}, {"measurement": "inhibition of type-III phosphodiesterase", "setting": "[4]", "value": "highly selective inhibition"}, {"measurement": "concentration at 0 h", "setting": "clinical [5]; Max", "value": 0.15, "unit": "µg/mL"}, {"measurement": "concentration at 2 h", "setting": "clinical [5]; Max", "value": 0.4, "unit": "µg/mL"}, {"measurement": "concentration at 4 h", "setting": "clinical [5]; Max", "value": 0.2, "unit": "µg/mL"}, {"measurement": "concentration at 8 h", "setting": "clinical [5]; Max", "value": 0.15, "unit": "µg/mL"}, {"measurement": "concentration at 0 h", "setting": "clinical [5]; Min", "value": 0, "unit": "µg/mL"}, {"measurement": "concentration at 2 h", "setting": "clinical [5]; Min", "value": 0.02, "unit": "µg/mL"}, {"measurement": "concentration at 4 h", "setting": "clinical [5]; Min", "value": 0.015, "unit": "µg/mL"}, {"measurement": "concentration at 8 h", "setting": "clinical [5]; Min", "value": 0, "unit": "µg/mL"}]}]}
